Experimental data reported in patent publication EP2818472A1, “Imidazo[4,5-c]pyridine and pyrrolo[3,2-c]pyridine compounds as G-protein-coupled receptor kinase 5 (GRK5) modulators” (Max-Planck-Gesellschaft zur Förderung der Wissenschaften …, priority 2013, dated 2014).

These compounds were tested on beta-TC6 cells (assay: Insulin HTRF assay (relative activity Ar) in beta-TC6 cells). Conditions: Mus musculus, Beta-TC6, 4 h, insulin HTRF, supernatant of beta-TC6 cells, incubation with test compound at 37°C for 2, 3, 4h; read-out: Ar (relative activity).
Assay type: cell-based, mouse
Procedure, shortened: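 beta-TC6 cells (15k/well, seeded 24 or 48 h) washed, then exposed to compound in induction buffer (0.5% DMSO final) for 2, 3 or 4 h at 37°C.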

Compared with `CN1CCN(c2nccc3[nH]c(-c4cccc(OC(F)(F)F)c4)nc23)CC1` [Compound 442, 4-(4-methylpiperazin-1-yl)-2-[3-(trifluoromethoxy)phenyl]-1H-imidazo[4,5-c]pyridine], `COc1ccc(Nc2nccc3[nH]c(-c4cccc(OC)c4)nc23)cc1` [Compound 372, 2-(3-methoxyphenyl)-N-(4-methoxyphenyl)-1H-imidazo[4,5-c]pyridin-4-amine] is higher in Emax: 30 to 50% for the first, 50 to 100% for the second.

First: CNc1nc2cnc(-c3ccc(S(C)(=O)=O)cc3)cc2n1-c1cccc(F)c1 [Compound 684, 1-(3-fluorophenyl)-N-methyl-6-(4-methylsulfonylphenyl)imidazo[4,5-c]pyridin-2-amine]
Second: CNc1nc2cnc(-c3cccs3)cc2n1-c1cccc(F)c1 [Compound 687, 1-(3-fluorophenyl)-N-methyl-6-(2-thienyl)imidazo[4,5-c]pyridin-2-amine]
The Emax of the first is lower: 30 to 50% for the first, 50 to 100% for the second.

First: COc1ccc(Nc2cc3c(cn2)nc(-c2ccccc2)n3C)c(OC)c1 [Compound 703, N-(2,4-dimethoxyphenyl)-1-methyl-2-phenyl-imidazo[4,5-c]pyridin-6-amine]
Second: Cn1c(Nc2ccccc2)nc2cnc(Nc3cccc(O)c3)cc21 [Compound 638, 3-[(2-anilino-1-methyl-imidazo[4,5-c]pyridin-6-yl)amino]phenol]
The Emax of the first is lower: 30 to 50% for the first, 50 to 100% for the second.

First: COc1ccc(Nc2nccc3[nH]c(-c4ccc(OC)cc4)nc23)cc1 [Compound 395, N,2-bis(4-methoxyphenyl)-1H-imidazo[4,5-c]pyridin-4-amine]
Second: NC(=O)c1ccc(Nc2nccc3[nH]c(-c4cccc(F)c4)nc23)cc1 [Compound 403, 4-[[2-(3-fluorophenyl)-1H-imidazo[4,5-c]pyridin-4-yl]amino]benzamide]
The Emax of the first is higher: 50 to 100% for the first, 30 to 50% for the second.

`CN(C)c1cccc(Nc2cc3[nH]c(-c4cncn4C)cc3cn2)c1` [Compound 104, N1,N1-dimethyl-N3-[2-(3-methylimidazol-4-yl)-1H-pyrrolo[3,2-c]pyridin-6-yl]benzene-1,3-diamine] and `COc1ccc(Nc2cc3[nH]c(-c4cccc(F)c4)cc3cn2)cc1OC` [Compound 7, N-(3,4-dimethoxyphenyl)-2-(3-fluorophenyl)-1H-pyrrolo[3,2-c]pyridin-6-amine] fall in the same range of Emax: 50 to 100% for the first, 50 to 100% for the second.

`CNc1nc2cnc(-c3ccc(CO)cc3)cc2n1C` [Compound 830, [4-[1-methyl-2-(methylamino)imidazo[4,5-c]pyridin-6-yl]phenyl]methanol] and `CNc1nc2cnc(Nc3ccc(F)cc3)cc2n1C` [Compound 611, N6-(4-fluorophenyl)-N2,1-dimethyl-imidazo[4,5-c]pyridine-2,6-diamine] fall in the same range of Emax: 30 to 50% for the first, 30 to 50% for the second.

First: Cn1c(-c2cccnc2)cc2cnc(Nc3ccc(F)cc3)cc21 [Compound 92, N-(4-fluorophenyl)-1-methyl-2-(3-pyridyl)pyrrolo[3,2-c]pyridin-6-amine]
Second: CC(=O)N(C)c1cccc(-c2cc3cnc(Nc4ccc(C(N)=O)cc4)cc3n2C)c1 [Compound 159, 4-[[2-[3-[acetyl(methyl)amino]phenyl]-1-methyl-pyrrolo[3,2-c]pyridin-6-yl]amino]benzamide]
The Emax of the first is lower: 0 to 30% for the first, 50 to 100% for the second.

First: Oc1cccc(Nc2nccc3[nH]c(-c4ccc5c(c4)OCCO5)nc23)c1 [Compound 418, 3-[[2-(2,3-dihydro-1,4-benzodioxin-6-yl)-1H-imidazo[4,5-c]pyridin-4-yl]amino]phenol]
Second: CC(C)CNc1nccc2[nH]c(-c3ccc4c(c3)OCCO4)nc12 [Compound 413, 2-(2,3-dihydro-1,4-benzodioxin-6-yl)-N-isobutyl-1H-imidazo[4,5-c]pyridin-4-amine]
The Emax of the first is higher: 50 to 100% for the first, 30 to 50% for the second.

`CN1CCN(c2ccc(Nc3cc4[nH]c(-c5ccc(C(=O)N(C)C)cc5)cc4cn3)cc2)CC1` [Compound 26, N,N-dimethyl-4-[6-[4-(4-methylpiperazin-1-yl)anilino]-1H-pyrrolo[3,2-c]pyridin-2-yl]benzamide] and `CN1CCN(c2ccc(Nc3cc4c(cn3)cc(-c3cnn(C)c3)n4C)cc2)CC1` [Compound 133, 1-methyl-N-[4-(4-methylpiperazin-1-yl)phenyl]-2-(1-methylpyrazol-4-yl)pyrrolo[3,2-c]pyridin-6-amine] fall in the same range of Emax: 50 to 100% for the first, 50 to 100% for the second.

First: CN(C)c1ccc(-c2cc3c(Nc4ccc(S(C)(=O)=O)cc4)nccc3n2C)cc1 [Compound 230, 2-(4-dimethylaminophenyl)-1-methyl-N-(4-methylsulfonylphenyl)pyrrolo[3,2-c]pyridin-4-amine]
Second: COc1ccc(Nc2nccc3c2cc(-c2cccnc2)n3C)c(C)c1 [Compound 240, N-(4-methoxy-2-methyl-phenyl)-1-methyl-2-(3-pyridyl)pyrrolo[3,2-c]pyridin-4-amine]
The Emax of the first is higher: 30 to 50% for the first, 0 to 30% for the second.

`COc1ccc(Nc2nccc3[nH]c(-c4ccsc4)cc23)cc1` [Compound 259, N-(4-methoxyphenyl)-2-(3-thienyl)-1H-pyrrolo[3,2-c]pyridin-4-amine] and `c1cncc(-c2cc3c(Nc4ccc5c(c4)OCCO5)nccc3[nH]2)c1` [Compound 232, N-(2,3-dihydro-1,4-benzodioxin-6-yl)-2-(3-pyridyl)-1H-pyrrolo[3,2-c]pyridin-4-amine] fall in the same range of Emax: 50 to 100% for the first, 50 to 100% for the second.

First: COc1ccc(CNc2nc3cnc(Nc4cccc(S(C)(=O)=O)c4)cc3n2C)cc1OC [Compound 608, N2-[(3,4-dimethoxyphenyl)methyl]-1-methyl-N6-(3-methylsulfonylphenyl)imidazo[4,5-c]pyridine-2,6-diamine]
Second: CNC(=O)c1cccc(-c2cc3c(cn2)nc(NCCOC)n3C)c1 [Compound 652, 3-[2-(2-methoxyethylamino)-1-methyl-imidazo[4,5-c]pyridin-6-yl]-N-methyl-benzamide]
The Emax of the first is lower: 30 to 50% for the first, 50 to 100% for the second.

Compared with `COc1cc(Nc2cc3[nH]c(-c4cn[nH]c4)cc3cn2)cc(C(F)(F)F)c1` [Compound 116, N-[3-methoxy-5-(trifluoromethyl)phenyl]-2-(1H-pyrazol-4-yl)-1H-pyrrolo[3,2-c]pyridin-6-amine], `CS(=O)(=O)Nc1cccc(Nc2cc3[nH]c(-c4cccc(F)c4)cc3cn2)c1` [Compound 13, N-[3-[[2-(3-fluorophenyl)-1H-pyrrolo[3,2-c]pyridin-6-yl]amino]phenyl]methanesulfonamide] is higher in Emax: 0 to 30% for the first, 50 to 100% for the second.

`Cn1c(Nc2ccccc2)nc2cnc(-c3ccc(N4CCOCC4)cc3)cc21` [Compound 630, 1-methyl-6-(4-morpholinophenyl)-N-phenyl-imidazo[4,5-c]pyridin-2-amine] and `Cn1cc(-c2cc3cnc(N4CCOCC4)cc3n2Cc2ccccc2)cn1` [Compound 155, 4-[1-benzyl-2-(1-methylpyrazol-4-yl)pyrrolo[3,2-c]pyridin-6-yl]morpholine] fall in the same range of Emax: 50 to 100% for the first, 50 to 100% for the second.

Compared with `CC(=O)Nc1ccc(Nc2cc3c(cn2)nc(-c2ccco2)n3C)cc1` [Compound 708, N-[4-[[2-(2-furyl)-1-methyl-imidazo[4,5-c]pyridin-6-yl]amino]phenyl]acetamide], `COCCNc1nc2cnc(-c3ccc4c(c3)OCO4)cc2n1C` [Compound 759, 6-(1,3-benzodioxol-5-yl)-N-(2-methoxyethyl)-1-methyl-imidazo[4,5-c]pyridin-2-amine] is lower in Emax: over 100% for the first, 0 to 30% for the second.

With `Cn1cc(-c2cc3cnc(N4CCOCC4)cc3n2C)cn1` [Compound 145, 4-[1-methyl-2-(1-methylpyrazol-4-yl)pyrrolo[3,2-c]pyridin-6-yl]morpholine] the Emax was over 100%.
